In patent US20080234262A1 (Wyeth, priority 2007, published 2008) one finds IC50 data, which are given here for 32 compounds.

For this test, the target named is PI3K (Homo sapiens, UniProt P42336). Put plainly: Fluorescence polarization assay for PI3K.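 Also: PI3K kinase reaction on PIP2 with ATP, 30-60 min, product sensed by GST-GRP with red probe in fluorescence polarization (mP), controls without enzyme and at zero time.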 Conditions: PI3Kα; read-out: PI3Kα IC50. In kind it is biochemical.
Sequence of PI3K (P42336 whole entry): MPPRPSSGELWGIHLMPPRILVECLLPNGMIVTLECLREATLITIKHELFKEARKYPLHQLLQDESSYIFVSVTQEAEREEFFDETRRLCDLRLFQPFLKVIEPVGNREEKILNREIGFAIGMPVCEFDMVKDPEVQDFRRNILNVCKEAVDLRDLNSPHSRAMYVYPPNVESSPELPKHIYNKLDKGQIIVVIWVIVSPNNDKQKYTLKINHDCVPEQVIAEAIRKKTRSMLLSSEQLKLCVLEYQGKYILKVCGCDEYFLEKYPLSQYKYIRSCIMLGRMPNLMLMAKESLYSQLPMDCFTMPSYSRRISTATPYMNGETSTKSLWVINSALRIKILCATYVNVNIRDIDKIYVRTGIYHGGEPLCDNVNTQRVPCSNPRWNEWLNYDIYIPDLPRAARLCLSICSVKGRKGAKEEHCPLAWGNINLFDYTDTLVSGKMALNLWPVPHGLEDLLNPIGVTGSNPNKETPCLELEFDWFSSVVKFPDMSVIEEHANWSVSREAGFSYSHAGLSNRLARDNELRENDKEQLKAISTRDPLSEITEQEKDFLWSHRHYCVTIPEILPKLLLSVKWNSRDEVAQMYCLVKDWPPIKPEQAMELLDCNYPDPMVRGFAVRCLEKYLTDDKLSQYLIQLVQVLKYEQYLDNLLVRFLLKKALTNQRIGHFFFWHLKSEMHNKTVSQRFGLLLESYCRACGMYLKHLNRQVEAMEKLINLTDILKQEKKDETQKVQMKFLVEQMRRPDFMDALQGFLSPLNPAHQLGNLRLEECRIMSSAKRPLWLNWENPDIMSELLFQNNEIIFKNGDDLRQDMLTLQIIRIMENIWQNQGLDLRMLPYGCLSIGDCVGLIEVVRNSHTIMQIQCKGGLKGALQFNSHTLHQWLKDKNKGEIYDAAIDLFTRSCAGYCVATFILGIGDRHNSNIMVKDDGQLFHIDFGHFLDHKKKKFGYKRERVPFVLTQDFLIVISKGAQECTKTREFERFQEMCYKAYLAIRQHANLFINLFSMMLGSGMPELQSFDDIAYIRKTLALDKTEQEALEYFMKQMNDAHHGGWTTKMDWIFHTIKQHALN
Sequence of PI3K (P27986 whole entry partner): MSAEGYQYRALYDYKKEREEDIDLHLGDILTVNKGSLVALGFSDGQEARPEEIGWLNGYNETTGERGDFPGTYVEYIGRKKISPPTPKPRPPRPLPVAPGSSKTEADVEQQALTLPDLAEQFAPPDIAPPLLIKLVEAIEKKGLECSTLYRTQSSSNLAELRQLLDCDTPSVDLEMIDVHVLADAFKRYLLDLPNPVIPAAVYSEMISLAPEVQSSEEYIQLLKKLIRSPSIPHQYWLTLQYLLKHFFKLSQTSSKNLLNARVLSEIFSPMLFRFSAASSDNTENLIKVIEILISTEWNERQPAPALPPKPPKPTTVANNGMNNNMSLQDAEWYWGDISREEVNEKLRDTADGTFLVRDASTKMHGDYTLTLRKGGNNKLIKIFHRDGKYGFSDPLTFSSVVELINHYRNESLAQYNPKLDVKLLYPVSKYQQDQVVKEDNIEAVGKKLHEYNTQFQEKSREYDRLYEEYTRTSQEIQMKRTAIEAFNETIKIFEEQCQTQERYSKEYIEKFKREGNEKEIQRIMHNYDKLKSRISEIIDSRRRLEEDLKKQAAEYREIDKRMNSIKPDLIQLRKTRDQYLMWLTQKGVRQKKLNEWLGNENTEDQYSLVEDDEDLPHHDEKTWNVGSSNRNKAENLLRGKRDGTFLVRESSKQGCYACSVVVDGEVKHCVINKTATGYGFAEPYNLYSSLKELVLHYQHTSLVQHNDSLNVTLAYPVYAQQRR
As for `COC(=O)Nc1ccc(-c2nc(N3CCOCC3)c3cnn(C4CCN(CC(N)=O)CC4)c3n2)cc1` [Compound 700, methyl (4-{1-[1-(2-amino-2-oxoethyl)piperidin-4-yl]-4-morpholin-4-yl-1H-pyrazolo[3,4-d]pyrimidin-6-yl}phenyl)carbamate], the IC50 amounted to 1430 nM.

Consider `c1cc2cc(-c3nc(N4CCOCC4)c4cnn(C5CCNCC5)c4n3)ccc2[nH]1` [Example 46], for which the IC50 was determined as 1310 nM.

As for `FC(F)(F)CN1CCC(n2ncc3c(N4CCOCC4)nc(-c4ccc5[nH]ccc5c4)nc32)CC1` [Compound 715, 6-(1H-indol-5-yl)-4-morpholin-4-yl-1-[1-(2,2,2-trifluoroethyl)piperidin-4-yl]-1H-pyrazolo[3,4-d]pyrimidine], the IC50 was determined as 2880 nM.

As for `CNCCNC(=O)Nc1ccc(-c2nc(N3CCOCC3)c3cnn(C4CCN(C(=O)c5ccccc5)CC4)c3n2)cc1` [Compound 631, 1-{4-[1-(1-benzoylpiperidin-4-yl)-4-morpholin-4-yl-1H-pyrazolo[3,4-d]pyrimidin-6-yl]phenyl}-3-[2-(methylamino)ethyl]urea], the IC50 was found to be 48 nM.

As for `CCNC(=O)Nc1cc(F)c(-c2nc(N3CCOCC3)c3cnn(C4CCN(C(=O)c5cccnc5)CC4)c3n2)cc1F` [Compound 710, 1-(2,5-difluoro-4-{4-morpholin-4-yl-1-[1-(pyridin-3-ylcarbonyl)piperidin-4-yl]-1H-pyrazolo[3,4-d]pyrimidin-6-yl}phenyl)-3-ethylurea], the IC50 turned out to be 3110 nM.

In the case of `CNC(=O)Nc1ccc(-c2nc(N3CCOCC3)c3cnn(C4CCN(C(=O)c5ccncc5)CC4)c3n2)cc1` [Example 417, 1-{4-[1-(1-isonicotinoylpiperidin-4-yl)-4-morpholin-4-yl-1H-pyrazolo[3,4-d]pyrimidin-6-yl]phenyl}-3-methylurea], the half-maximal inhibitory concentration (IC50) amounted to 160 nM.

On to `Nc1ccc(-c2nc(N3CCOCC3)c3cn[nH]c3n2)cc1` [Compound 531, 4-(4-morpholin-4-yl-1H-pyrazolo[3,4-d]pyrimidin-6-yl)aniline], for which the IC50 came to 1610 nM.

With `CN(C)CC(=O)Nc1ccc(-c2nc(N3CCOCC3)c3cn[nH]c3n2)cc1` [Compound 958, N2,N2-dimethyl-N-[4-(4-morpholin-4-yl-1H-pyrazolo[3,4-d]pyrimidin-6-yl)phenyl]glycinamide], the IC50 turned out to be 2270 nM.

Turning to `CCNC(=O)Nc1ccc(-c2nc(N3CCOCC3)c3cnn(C4CCN(Cc5cccnc5)CC4)c3n2)cc1F` [Example 372, 1-ethyl-3-(2-fluoro-4-{4-morpholin-4-yl-1-[1-(pyridin-3-ylmethyl)piperidin-4-yl]-1H-pyrazolo[3,4-d]pyrimidin-6-yl}phenyl)urea], the IC50 turned out to be 424 nM.

Consider `COC(=O)Nc1ccc(-c2nc(N3CCOCC3)c3cnn(C4CCN(C(=O)c5cccnc5)CC4)c3n2)cc1` [Example 223, methyl (4-{4-morpholin-4-yl-1-[1-(pyridin-3-ylcarbonyl)piperidin-4-yl]-1H-pyrazolo[3,4-d]pyrimidin-6-yl}phenyl)carbamate], for which the IC50 was found to be 514 nM.

`O=C(Nc1ccccc1)Nc1ccc(-c2nc(N3CCOCC3)c3cnn(C4CCN(C(=O)c5cccnc5)CC4)c3n2)cc1` [Example 343, 1-(4-{4-morpholin-4-yl-1-[1-(pyridin-3-ylcarbonyl)piperidin-4-yl]-1H-pyrazolo[3,4-d]pyrimidin-6-yl}phenyl)-3-phenylurea]: the IC50 was found to be 14 nM.

Take `O=C(NCCF)Nc1cc(F)c(-c2nc(N3CCOCC3)c3cnn(C4CCN(C(=O)c5cccnc5)CC4)c3n2)cc1F` [Compound 711, 1-(2,5-difluoro-4-{4-morpholin-4-yl-1-[1-(pyridin-3-ylcarbonyl)piperidin-4-yl]-1H-pyrazolo[3,4-d]pyrimidin-6-yl}phenyl)-3-(2-fluoroethyl)urea]: the IC50 came out at 2980 nM.

For `CCNC(=NC#N)Nc1ccc(-c2nc(N3CCOCC3)c3cnn(C4CCN(Cc5cccnc5)CC4)c3n2)cc1` [Compound 652, 2-cyano-1-ethyl-3-(4-{4-morpholin-4-yl-1-[1-(pyridin-3-ylmethyl)piperidin-4-yl]-1H-pyrazolo[3,4-d]pyrimidin-6-yl}phenyl)guanidine], the IC50 turned out to be 916 nM.

On to `CNC(=O)Nc1ccc(-c2nc(N3CCOCC3)c3cnn(C4CCCCO4)c3n2)cc1` (centres unmarked) [Compound 935, 1-methyl-3-{4-[4-morpholin-4-yl-1-(tetrahydro-2H-pyran-2-yl)-1H-pyrazolo[3,4-d]pyrimidin-6-yl]phenyl}urea], for which the IC50 stood at 118 nM.

In the case of `COC(=O)Nc1ccc(-c2nc(N3CCOCC3)c3cnn(C4CCN(C(=O)c5ccc(F)cc5)CC4)c3n2)cc1` [Compound 689, methyl (4-{1-[1-(4-fluorobenzoyl)piperidin-4-yl]-4-morpholin-4-yl-1H-pyrazolo[3,4-d]pyrimidin-6-yl}phenyl)carbamate], the IC50 was determined as 989 nM.

As for `Nc1ccc(-c2nc(N3CCOCC3)c3cnn(C4CCN(C(=O)c5cccnc5)CC4)c3n2)c(F)c1` [Compound 704, 3-fluoro-4-{4-morpholin-4-yl-1-[1-(pyridin-3-ylcarbonyl)piperidin-4-yl]-1H-pyrazolo[3,4-d]pyrimidin-6-yl}aniline], the IC50 was determined as 4030 nM.

Turning to `COC(=O)Nc1ccc(-c2nc(N3CCOCC3)c3cnn(C4CCN(C(=O)c5ccc(F)cc5F)CC4)c3n2)cc1` [Compound 693, methyl (4-{1-[1-(2,4-difluorobenzoyl)piperidin-4-yl]-4-morpholin-4-yl-1H-pyrazolo[3,4-d]pyrimidin-6-yl}phenyl)carbamate], the IC50 stood at 800 nM.

`C=CC(=O)N1CCC(n2ncc3c(N4CCOCC4)nc(-c4ccc(NC(=O)OC)cc4)nc32)CC1` [Compound 702, methyl {4-[1-(1-acryloylpiperidin-4-yl)-4-morpholin-4-yl-1H-pyrazolo[3,4-d]pyrimidin-6-yl]phenyl}carbamate]: the IC50 came to 1980 nM.

With `O=C(Nc1ccc(-c2nc(N3CCOCC3)c3cnn(C4CCN(Cc5ccccc5)CC4)c3n2)cc1)C(F)(F)F` [Compound 299, N-{4-[1-(1-benzylpiperidin-4-yl)-4-morpholin-4-yl-1H-pyrazolo[3,4-d]pyrimidin-6-yl]phenyl}-2,2,2-trifluoroacetamide], the IC50 was determined as 1900 nM.

For the compound `O=C(NCCF)Nc1ccc(-c2nc(N3CCOCC3)c3cnn(C4CCN(C(=O)c5cccnc5)CC4)c3n2)c(F)c1` [Compound 707, 1-(2-fluoroethyl)-3-(3-fluoro-4-{4-morpholin-4-yl-1-[1-(pyridin-3-ylcarbonyl)piperidin-4-yl]-1H-pyrazolo[3,4-d]pyrimidin-6-yl}phenyl)urea], the IC50 worked out at 1730 nM.

`CNC(=O)Nc1ccc(-c2nc(N3CCOCC3)c3cnn(C4CCN(C(=O)c5ccncc5)CC4)c3n2)cc1` [Compound 661, 1-{4-[1-(1-isonicotinoylpiperidin-4-yl)-4-morpholin-4-yl-1H-pyrazolo[3,4-d]pyrimidin-6-yl]phenyl}-3-methylurea]: the IC50 is 160 nM.

For the compound `N#CN=C(N)Nc1ccc(-c2nc(N3CCOCC3)c3cnn(C4CCN(C(=O)c5cccnc5)CC4)c3n2)cc1` [Compound 655, 2-cyano-1-(4-{4-morpholin-4-yl-1-[1-(pyridin-3-ylcarbonyl)piperidin-4-yl]-1H-pyrazolo[3,4-d]pyrimidin-6-yl}phenyl)guanidine], the IC50 was determined as 344 nM.

With `Nc1ccc(-c2nc(N3CCOCC3)c3cnn(C4CCCCO4)c3n2)cc1` (centres unmarked) [Compound 934, 4-[4-morpholin-4-yl-1-(tetrahydro-2H-pyran-2-yl)-1H-pyrazolo[3,4-d]pyrimidin-6-yl]aniline], the IC50 came out at 4920 nM.

For the compound `CN(C)CCC(=O)Nc1ccc(-c2nc(N3CCOCC3)c3cnn(-c4ccccc4)c3n2)cc1` [Compound 133], the IC50 worked out at 223 nM.

Take `CNC(=O)Nc1ccc(-c2nc(N3CCOCC3)c3cnn(C4CCN(Cc5ccc(OC)c(O)c5)CC4)c3n2)cc1` [Compound 643, 1-(4-{1-[1-(3-hydroxy-4-methoxybenzyl)piperidin-4-yl]-4-morpholin-4-yl-1H-pyrazolo[3,4-d]pyrimidin-6-yl}phenyl)-3-methylurea]: the IC50 is 57 nM.

Regarding `COC(=O)Nc1ccc(-c2nc(N3CCOCC3)c3cnn(C4CCN(Cc5ccc(F)cc5)CC4)c3n2)cc1` [Compound 959, methyl (4-{1-[1-(4-fluorobenzyl)piperidin-4-yl]-4-morpholin-4-yl-1Hpyrazolo[3,4-d]pyrimidin-6-yl}phenyl)carbamate], the IC50 was determined as 750 nM.

As to `NC(=O)Nc1cccc(-c2nc(N3CCOCC3)c3cnn(C4CCN(Cc5ccccc5)CC4)c3n2)c1` [Compound 229, N-{3-[1-(1-benzylpiperidin-4-yl)-4-morpholin-4-yl-1H-pyrazolo[3,4-d]pyrimidin-6-yl]phenyl}urea], the IC50 was determined as 2170 nM.

As for `c1ccc(CN2CCC(n3ncc4c(N5CCOCC5)nc(-c5ccc6ncccc6c5)nc43)CC2)cc1` [Compound 937, 6-[1-(1-benzylpiperidin-4-yl)-4-morpholin-4-yl-1H-pyrazolo[3,4-d]pyrimidin-6-yl]quinoline], the IC50 is 466 nM.

With `CNC(=NC#N)Nc1ccc(-c2nc(N3CCOCC3)c3cnn(C4CCN(C(=O)c5cccnc5)CC4)c3n2)cc1` [Compound 656, 2-cyano-1-methyl-3-(4-{4-morpholin-4-yl-1-[1-(pyridin-3-ylcarbonyl)piperidin-4-yl]-1H-pyrazolo[3,4-d]pyrimidin-6-yl}phenyl)guanidine], the IC50 turned out to be 382 nM.

`CCNC(=O)Nc1ccc(-c2nc(N3CCOCC3)c3cnn(C4CCN(Cc5cccnc5)CC4)c3n2)cn1` [Compound 479, 1-ethyl-3-(5-{4-morpholin-4-yl-1-[1-(pyridin-3-ylmethyl)piperidin-4-yl]-1H-pyrazolo[3,4-d]pyrimidin-6-yl}pyridin-2-yl)urea]: the IC50 was determined as 138 nM.

With `CN(C)CC=CC(=O)N1CCC(n2ncc3c(N4CCOCC4)nc(-c4ccc5[nH]ccc5c4)nc32)CC1` [Compound 957, 4-{4-[6-(1H-indol-5-yl)-4-morpholin-4-yl-1H-pyrazolo[3,4-d]pyrimidin-1-yl]piperidin-1-yl}-N,N-dimethyl-4-oxobut-2-en-1-amine], the IC50 amounted to 480 nM.

Regarding `CC(=O)Nc1ccc(-c2nc(N3CCOCC3)c3cnn(C4CCCCO4)c3n2)cc1` (centres unmarked) [Compound 224, N-{4-[4-morpholin-4-yl-1-(tetrahydro-2H-pyran-2-yl)-1H-pyrazolo[3,4-d]pyrimidin-6-yl]phenyl}acetamide], the IC50 worked out at 1650 nM.
